Values after ≈ are worked out from the molar mass of the structure shown.

The conditions of this data set: buffer; pH 7.4; 200.0 µM.
Take `CCOC(=O)CNc1nc(Cl)nc(Nc2ccc(C)cc2)n1`: the kinetic solubility (as a rule, solubility judged after dilution from a stock solution rather than from solid) was 0.5 µg/mL (≈ 1.55 µM).

`O=C(COc1ccc(F)cc1)N1CCCCCCC1` came in with a kinetic solubility of 38.8 µg/mL (≈ 146 µM).

`CC1CC(C)CN(C(=O)CSc2ncnc3sccc23)C1` (stereo unspecified) showed a kinetic solubility of 17.1 µg/mL (≈ 53.2 µM).

In the case of `CC(=O)N1CCN(CC(=O)Nc2sccc2C#N)CC1`, the solubility (kinetic) stood at 39 µg/mL (≈ 133 µM).

Regarding `O=C(CN1C(=O)NC2(CCCC2)C1=O)Nc1cc(C(F)(F)F)ccc1N1CCOCC1`, the solubility (kinetic) stood at 5.2 µg/mL (≈ 11.8 µM).

Regarding `C=CCOc1cccc(C2NC(=O)c3ccccc3O2)c1` (stereo unspecified), the solubility (kinetic) was found to be 3 µg/mL (≈ 10.7 µM).

As to `O=C(COC(=O)c1cc(S(=O)(=O)N2CCOCC2)ccc1Cl)NCc1ccccc1`, the solubility (kinetic) is > 67.9 µg/mL.

`Cc1cc(Cl)n2c(nc3ccccc32)c1C#N` yielded a kinetic solubility of 15.3 µg/mL (≈ 63.3 µM).

The compound `COc1ccc(Nc2nc(NCC3CCCO3)nc(N)c2[N+](=O)[O-])cc1` (stereo unspecified) displayed a solubility (kinetic) of 1.7 µg/mL (≈ 4.72 µM).

In the case of `CC1CCN(C(=O)COC(=O)c2ccc3ccccc3n2)CC1`, the kinetic solubility is > 46.9 µg/mL.

`CCOC(=O)N1CCN(S(=O)(=O)c2ccc(Cl)cc2)CC1`: the solubility (kinetic) was 48.4 µg/mL (≈ 145 µM).

`Cc1nonc1-c1csc(N)n1`: the kinetic solubility is > 27.3 µg/mL.

With `O=C(O)CSc1ccnc2cc(Cl)ccc12`, the kinetic solubility is > 38.1 µg/mL.

As for `Cc1cccc(C(=O)Nc2ccnc(-c3cccnc3)n2)c1`, the kinetic solubility came to 5.4 µg/mL (≈ 18.6 µM).

The compound `CCOC(=O)C1(CC2CC2)CCN(Cc2ccc(C(=O)OC)cc2)CC1` yielded a kinetic solubility of 42.8 µg/mL (≈ 119 µM).

With `CCCn1c(N)cc(=O)n(CCC)c1=O`, the kinetic solubility was > 31.7 µg/mL.

Take `CCCNc1c(N)c(=O)c1=O`: the kinetic solubility is > 23.1 µg/mL.

For the compound `COc1ccc(C(=O)OC(C)CN2CCOCC2)cc1.Cl` (stereo unspecified), the kinetic solubility was > 47.4 µg/mL.

Compound `CC(C)(C)c1ccc(C(=O)O/N=C(\N)c2ccccn2)cc1` gave a kinetic solubility of 2.4 µg/mL (≈ 8.07 µM).

Regarding `CCn1c(/N=C/c2ccccc2O)nc2ccccc21`, the kinetic solubility was determined as 36.9 µg/mL (≈ 139 µM).

Take `CC(=O)N1CCN(C(=O)CNC(=O)c2ccc(Br)o2)CC1`: the kinetic solubility is > 53.7 µg/mL.

Take `Cc1cc2oc(=O)cc(CN3CCC(C)CC3)c2cc1C`: the solubility (kinetic) was determined as 4.1 µg/mL (≈ 14.4 µM).

`O=C(Nc1cccc(Br)c1)c1cc(=O)c2ccccc2o1`: the kinetic solubility was < 0.7 µg/mL.

Turning to `O=[N+]([O-])c1cccc(OCc2cn3cccnc3n2)c1`, the solubility (kinetic) was > 40.5 µg/mL.

`O=C(O)C(=O)O.c1ccc(OCCN2CCOCC2)cc1`: the kinetic solubility is > 44.6 µg/mL.

Take `C=CCOCCN(C)C1=NS(=O)(=O)c2ccccc21.Cl`: the solubility (kinetic) is > 47.5 µg/mL.

On to `Cc1ccc(OCC(=O)N2C(C)CCCC2C)c([N+](=O)[O-])n1` (stereo unspecified), for which the kinetic solubility is > 46.1 µg/mL.

`CSc1nc(C)c(C(=O)C[n+]2ccc(C)cc2)cc1C#N.[Br-]` came in with a kinetic solubility of 50 µg/mL.

For the compound `COc1ccccc1/C=C/C(=O)NCC(=O)N/N=C/c1ccc(C)o1`, the kinetic solubility was > 51.2 µg/mL.

On to `COc1ccc(NC(=O)COC(=O)CCc2ccccc2)c(OC)c1`, for which the solubility (kinetic) worked out at 5.2 µg/mL (≈ 15.1 µM).

In turn, `COc1ccccc1C(=O)NC1CCSc2ccccc21` (stereo unspecified) showed a kinetic solubility of 31.5 µg/mL (≈ 105 µM).

In the case of `Cc1cc(C)nc(N2CCCC(C(=O)NC(C)C)C2)n1` (stereo unspecified), the kinetic solubility is 41.1 µg/mL (≈ 149 µM).

For the compound `COCCN(C(=O)CSc1ccc2c(c1)OCCO2)c1c(N)n(CC(C)C)c(=O)[nH]c1=O`, the solubility (kinetic) is > 69.7 µg/mL.

`O=C(Cn1cccc1C(=O)c1ccccc1)NCc1ccc(Cl)cc1` came in with a kinetic solubility of 1.1 µg/mL (≈ 3.12 µM).

For the compound `CC(=O)c1ccc(NC(=O)CCc2ccc(C)o2)cc1`, the solubility (kinetic) amounted to 36.7 µg/mL (≈ 135 µM).

Take `Cn1cccc1C(=O)NCCc1ccc(Cl)cc1`: the kinetic solubility was determined as 36.1 µg/mL (≈ 137 µM).

Compound `CCOc1ccccc1C1NC(=O)c2ccccc2O1` (stereo unspecified) returned a kinetic solubility of 35.2 µg/mL (≈ 131 µM).

In the case of `O=C(CNC(=O)c1ccccc1)NCCc1ccc(O)c(O)c1`, the kinetic solubility is > 47.2 µg/mL.

With `O=C(O)c1cc(-c2ccccc2Cl)n(-c2ccc(F)cc2)n1`, the solubility (kinetic) was > 47.5 µg/mL.

In turn, `COc1cccc(NC(=O)CN(C)C(=O)C2=COCCO2)c1` had a kinetic solubility of 43.1 µg/mL (≈ 141 µM).

Regarding `CCCCOc1ccc(C(=O)NCC(=O)NNC(=O)c2ccco2)cc1`, the solubility (kinetic) is > 53.9 µg/mL.

As to `C(#Cc1ccccc1)CN1CCCCC1.Cl`, the solubility (kinetic) was determined as 25.6 µg/mL.

`CC(C)(C)NC(=O)NC(=O)COC(=O)Cc1c(F)cccc1Cl` yielded a solubility (kinetic) of 15.6 µg/mL (≈ 45.2 µM).

For the compound `CCc1noc(C)c1C(=O)Nc1nc(-c2ccc(OC)cc2)cs1`, the kinetic solubility came to 2.3 µg/mL (≈ 6.7 µM).

Regarding `Cc1ccc(NC(=O)CCn2c(=O)[nH]c3ccsc3c2=O)cc1`, the solubility (kinetic) was 8.2 µg/mL (≈ 24.9 µM).

As to `CC(NC(=O)c1ccncc1)c1ccc(Cl)cc1Cl` (stereo unspecified), the kinetic solubility was > 44.3 µg/mL.

`O=C(NCc1ccncc1)NC1CCCCC1`: the solubility (kinetic) is > 35 µg/mL.

Turning to `CCCSC1=C(C#N)C(c2cccs2)CC(=O)N1` (stereo unspecified), the kinetic solubility was determined as 33.7 µg/mL (≈ 121 µM).

`O=C(Nc1cccc([N+](=O)[O-])c1)C1C2/C=C\CCCCC21` (stereo unspecified): the kinetic solubility was < 0.3 µg/mL.

As to `Cc1ccc(OCC(O)CN2CCCC2)cc1` (stereo unspecified), the solubility (kinetic) is > 35.3 µg/mL.

Turning to `Cc1ccc(NC(=O)C(C)SCc2ccccc2)cc1` (stereo unspecified), the kinetic solubility was 32.8 µg/mL (≈ 115 µM).

The values are drawn from PubChem BioAssay AID1996.
